In assay [1] the test system is S. aureus Col(Meth^R)(lac^-). The assay is described as follows: In vitro MIC, agar dilution. It counts as cell-based. Particulars: Staphylococcus aureus, read-out: minimum inhibitory concentration (MIC). The essentials: (§1)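 Two-fold dilutions (128 to ≤0.25 μg/mL, in duplicate) were poured into Mueller-Hinton agar. Log-phase broth cultures were spot-inoculated at about 10^4 cfu per spot and incubated 35-36°C for 16-20 hours; the MIC was the lowest concentration inhibiting growth. Col is a high-level PBP2a producer; Col 8A is its isogenic PBP2a-lacking partner.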

The test system of assay [2] is S. aureus Col8A(Meth^S)(lac^-). The assay is described as follows: In vitro MIC, agar dilution. It counts as cell-based. Particulars: Staphylococcus aureus; S. aureus Col8A(Meth^S)(lac^-); read-out: minimum inhibitory concentration (MIC). Put shortly:
as §1

The test system of assay [3] is S. aureus strain ATCC 13709 (methicillin-susceptible). The assay is described as follows: Murine model for lethal bacteremic peritonitis. The note with it: Staphylococcus aureus, ATCC13709, SC, 72 h. It counts as in vivo, female Swiss-Webster mice. Put shortly:
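Female Swiss-Webster mice were challenged IP with an LD100 inoculum in 7% hog gastric mucin, then given test drug subcutaneously in twofold increments (0.01–512 mg/kg) as two equal doses at challenge and 2 h later, 10 mice per group. Survival was scored at 72 h; PD50 (total mg/kg) was derived by probit.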

Assay [4] relates to E. faecium A491(Amp^R). The assay is described as follows: In vitro MIC, agar dilution. It counts as cell-based. The note with it: Enterococcus faecium, read-out: minimum inhibitory concentration (MIC). The essentials: (§2)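 Agar dilution, Mueller-Hinton; drug 128 → ≤0.25 μg/mL two-fold, duplicates. Inoculum ~10^4 cfu/spot (log phase). 35-36 °C, 16-20 h. MIC = lowest conc. with no growth.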

In assay [5] the test system is S. aureus Spain #356(Meth^R). The assay is described as follows: In vitro MIC, agar dilution. Format: cell-based. Particulars: Staphylococcus aureus, read-out: minimum inhibitory concentration (MIC). Put shortly:
as §2
On the technique in general: In agar dilution the substance is mixed into plates at graded concentrations.

Assay [6] has as its system E. faecium VanA(Van^R). In words: In vitro MIC, agar dilution. Format: cell-based. Particulars: Enterococcus faecium, read-out: minimum inhibitory concentration (MIC). The essentials: as §2
The subject of assay [7] is S. aureus 76(Meth^R)(lac^+). The assay is described as follows: In vitro MIC, agar dilution. It counts as cell-based. Particulars: Staphylococcus aureus, read-out: minimum inhibitory concentration (MIC). Put shortly: as §2
Assay [8] deals with S. aureus ATCC 33593(Meth^R). The assay is described as follows: In vitro MIC, agar dilution. It counts as cell-based. Particulars: Staphylococcus aureus, ATCC33593, read-out: minimum inhibitory concentration (MIC). The essentials:
as §2

The test system of assay [9] is E. coli ATCC 25992. The assay is described as follows: In vitro MIC, agar dilution. Format: cell-based. Particulars: Escherichia coli, ATCC25992, read-out: minimum inhibitory concentration (MIC). Put shortly:
as §2

In assay [10] the test system is S. aureus ATCC 29213. In words: In vitro MIC, agar dilution. Format: cell-based. The note with it: Staphylococcus aureus, ATCC29213, read-out: minimum inhibitory concentration (MIC). The essentials: as §2
Assay [11] has as its system P. aeruginosa ATCC 27853. The assay is described as follows: In vitro MIC, agar dilution. Format: cell-based. Particulars: Pseudomonas aeruginosa, ATCC27853, read-out: minimum inhibitory concentration (MIC). The essentials:
as §2

In assay [12] the test system is E. faecalis VanB(Van^R). In words: In vitro MIC, agar dilution. Format: cell-based. The note with it: Enterococcus faecalis, read-out: minimum inhibitory concentration (MIC). Put shortly:
as §2

For assay [13], the system named is S. aureus PC1(Meth^S)(lac^+). The assay is described as follows: In vitro MIC, agar dilution. It counts as cell-based. The note with it: Staphylococcus aureus, read-out: minimum inhibitory concentration (MIC). Put shortly:
as §2

Assay [14] concerns S. haemolyticus 05(Meth^R). The assay is described as follows: In vitro MIC, agar dilution. It counts as cell-based. Particulars: Staphylococcus haemolyticus, read-out: minimum inhibitory concentration (MIC). Put shortly: as §2
Assay [15] concerns E. faecalis ATCC 29212. The assay is described as follows: In vitro MIC, agar dilution. It counts as cell-based. The note with it: Enterococcus faecalis, ATCC29212, read-out: minimum inhibitory concentration (MIC). Put shortly: as §2
The subject of assay [16] is E. faecium ATCC 35667. The assay is described as follows: In vitro MIC, agar dilution. It counts as cell-based. Particulars: Enterococcus faecium, ATCC35667, read-out: minimum inhibitory concentration (MIC). The essentials: as §2
The test system of assay [17] is S. aureus ATCC 13709(Meth^S). In words: In vitro MIC, agar dilution. Format: cell-based. The note with it: Staphylococcus aureus, ATCC13709, S. aureus ATCC 13709(Meth^S); read-out: minimum inhibitory concentration (MIC). The essentials: as §2

In general, ED50 refers to the dose at which the effect has come halfway, by size or by number of responders.

Structures can show the parent of a compound that is named as a salt.

`N=C(N)SCc1cnccc1SC1=C(C(=O)O)N2C(=O)[C@@H](NC(=O)Cc3ccccc3)[C@H]2SC1` [Cmpd 1, (7R)-7-[(phenylacetyl)amino]-3-(3-isothioureidomethylpyrid-4-ylthio)-3-cephem-4-carboxylate, trifluoroacetic acid salt]: the MIC was 4 µg/mL in assay [1]; at most 0.06 µg/mL in assay [2]; over 32 µg/mL in assay [4]; 8 µg/mL in [5]; 8 µg/mL in [6]; 8 µg/mL in [7]. Also, the MIC is 8 µg/mL in [8]; over 32 µg/mL in [9]; 0.13 µg/mL in assay [10]; over 32 µg/mL in [11]; 4 µg/mL in [12]; 1 µg/mL in [13]. The MIC in assay [14] came to 16 µg/mL; in assay [15], 1 µg/mL; in assay [16], 2 µg/mL. The responders at 0.156 mg/kg in assay [3] (Dose 0.156 mg/kg, read-out: Survivors) stood at 20%. Further, in [3] (Dose 0.3125 mg/kg, read-out: Survivors), the responders at 0.3125 mg/kg stood at 50%. The responders at 0.625 mg/kg in [3] (Dose 0.625 mg/kg, read-out: Survivors) is 60%. Also, the responders at 1.25 mg/kg in assay [3] (Dose 1.25 mg/kg, read-out: Survivors (converted)) is 80%. The responders at 2.5 mg/kg in [3] (Dose 2.5 mg/kg, read-out: Survivors) is 100%. For the same compound, the ED50 in assay [3] (two equal doses, IP challenge, read-out: ED50) was found to be 0.39 mg/kg.

With `N=C(N)SCc1nnsc1SC1=C(C(=O)O)N2C(=O)[C@@H](NC(=O)Cc3ccccc3)[C@H]2SC1` [Cmpd 2, (7R)-7-[(phenylacetyl)amino]-3-(4-isothioureidomethyl-1,2,3-thiadiazol-5-ylthio)-3-cephem-4-carboxylate, trifluoroacetic acid salt], the MIC in assay [1] is 1 µg/mL; in [2], at most 0.06 µg/mL; in assay [4], over 32 µg/mL; in [5], 4 µg/mL; in assay [6] it was 4 µg/mL; in [7] it was 4 µg/mL. The MIC in assay [8] was 4 µg/mL; in assay [9], 16 µg/mL; in [10] it was at most 0.06 µg/mL; in assay [11], over 32 µg/mL; in assay [12] it was 0.5 µg/mL; in assay [13], 0.5 µg/mL. Besides, the values for the MIC in assay [14], in assay [15] and in [16] were 4 µg/mL, 0.5 µg/mL and 1 µg/mL, respectively.

As to `NCCCOCc1cnccc1SC1=C(C(=O)O)N2C(=O)[C@@H](NC(=O)/C(=N\O)c3nc(N)sc3Cl)[C@H]2SC1` [Cmpd 47, (7R)-7-[(Z)-2-(2-amino-5-chlorothiazol-4-yl)-2-(hydroxyimino)acetamido]-3-(3-(3-aminopropyloxymethyl)pyrid-4-ylthio)-3-cephem-4-carboxylate, trifluoroacetic acid salt], the MIC in assay [1] is 2 µg/mL; in assay [2] it was 0.5 µg/mL; in [4], 16 µg/mL; in [5], 2 µg/mL; in [6], 2 µg/mL; in assay [7], 2 µg/mL. The MIC in assay [8] was 2 µg/mL; in assay [9], 8 µg/mL; in assay [10], 1 µg/mL; in [11], over 32 µg/mL; in assay [17] it was 2 µg/mL; in [13], 2 µg/mL. In addition, the MIC in [14] was 4 µg/mL; in assay [15], 0.13 µg/mL; in assay [16] it was 2 µg/mL.

For the origin of these results see patent US6087355A, “Cephalosporin antibiotics” (Microcide Pharmaceuticals, Inc., priority 1996, dated 2000).
